The values below come from patent US10882865B2, “Pyrrolopyrimidine compounds and uses thereof for modulating glucocerebrosidase activity” (Northwestern University, priority 2018, dated 2021).

For this test, the target named is T1, glucocerebrosidase (GCase) (Homo sapiens, UniProt P04062).
T1 sequence (P04062 40-536): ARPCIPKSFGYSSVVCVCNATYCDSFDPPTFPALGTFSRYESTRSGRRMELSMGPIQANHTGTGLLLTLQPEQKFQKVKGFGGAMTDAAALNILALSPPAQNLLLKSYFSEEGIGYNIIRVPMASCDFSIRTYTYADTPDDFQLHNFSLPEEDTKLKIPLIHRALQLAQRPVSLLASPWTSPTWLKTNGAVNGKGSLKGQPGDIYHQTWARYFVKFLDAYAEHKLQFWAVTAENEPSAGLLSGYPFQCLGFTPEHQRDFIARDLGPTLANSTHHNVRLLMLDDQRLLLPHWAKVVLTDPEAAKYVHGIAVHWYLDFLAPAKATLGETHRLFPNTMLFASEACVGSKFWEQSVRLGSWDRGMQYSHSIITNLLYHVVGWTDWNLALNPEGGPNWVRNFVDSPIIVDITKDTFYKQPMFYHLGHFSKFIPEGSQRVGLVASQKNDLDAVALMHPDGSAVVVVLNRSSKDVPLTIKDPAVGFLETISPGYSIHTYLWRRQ
Nature of the test: Glucocerebrosidase activation (Table 1, Exemplary Compounds and Activities). The test is classed as biochemical. To be noted: activation of glucocerebrosidase; for Emax: read-out: Maximum Activation (Emax). The source says: The compounds disclosed herein preferably modulate activity of glucocerebrosidase. Modulation may include inhibiting or decreasing glucocerebrosidase activity. Modulation also may include activating or increasing glucocerebrosidase activity. Glucocerebrosidase activity may be assessed utilizing methods known in the art and the methods disclosed herein, including the methods disclosed in the Examples provided herein. In some embodiments, the compounds decrease or increase glucocerebrosidase activity relative to a control (e.g., by at least about 10%, 20%, 30%, 40%, 50%, 60%, 70%, 80%, 90%, 100%, 200%, 300%, 400%, 500%, 600%, 700%, 800%, 900%, 1000% or more (or within a range bounded by any of these values)). In other embodiments, the compounds activate glucocerebrosidase greater than about 2-fold, 3-fold, 4-fold, 5-fold, 10-fold, 20-fold, 30-fold, 40-fold, 50-fold, 60-fold, 70-fold, 80-fold, 90-fold, or 100-fold, relative to a control. […] In other embodiments, an AC50 value for the compound in regard to activation of glucocerebrosidase may be determined and preferably the compound has an AC50 value of less than about 10 μM, 5 μM, or 1 μM, 0.5 μM, 0.1 μM, 0.05 μM, 0.01 μM, 0.005 μM, or 0.001 μM (or within a range bounded by any of these values).
Methods for measuring glucocerebrosidase activity are known in the art. (See, e.g., U.S. Publication No. 2017/0001976 and U.S. Publication No. 2017/0002013 and Zheng et al. “Design and Synthesis of Potent Quinazolines as Selective β-Glucocerebrosidase Modulators, J. Med. Chem. 2016 September 22; 59(18): 8508-8520; the contents of which are incorporated herein by reference in their entireties).
The disclosed pyrrolopyrimidine compounds were synthesized and tested using the methods described below. Additional methods for synthesizing and testing pyrrolopyrimidine compounds are described in the art. (See, e.g., Zheng et al., β-Glucocerebrosidase Modulators Promote Dimerization of β-Glucocerebrosidase and Reveal an Allosteric Binding Site, J. Am. Chem. Soc., 2018, 140 (18), pp 5914-5924; and U.S. Pat. No. 9,802,942; the contents of which are incorporated herein by reference in their entireties).

With `CCOC(=O)Cc1cc(NC(=O)c2ccn3c(C)cc(C)nc23)ccc1CCCOCCOCCOCCOCCNC(=O)C1CCCCC1` [compound 48], half-maximal activity (AC50) was put at 3.16 µM and the Emax was 796%.

As for `Cc1cc(C)n2ccc(C(=O)Nc3ccc(CCCOCCOCCOCCOCCNC(=O)C4CCCCC4)c(CC(=O)ON4C(=O)CCC4=O)c3)c2n1` [compound 49], the AC50 amounted to 3.55 µM.

Regarding `Cc1cc(C)n2ccc(C(=O)Nc3cccc(CC(=O)Oc4ccccc4)c3)c2n1` [compound 50], half-maximal activity (AC50) was put at 4.47 µM and the Emax was 230%.

For the compound `Cc1cc(C)n2ccc(C(=O)Nc3cccc(CC(=O)Oc4ccc([N+](=O)[O-])cc4)c3)c2n1` [compound 51], the activity was half-maximal at 10 µM (AC50) and the Emax was 172%.

As usually defined, the AC50 is the midpoint of the concentration-response curve, whichever way the signal moves. The low end stands for greater potency, the high end for weaker potency. A word on the Emax: it is the greatest response seen or fitted, relative to the assay's reference.
